In patent US4485039A, “Synthetic analogues of α-melanotropin” (University Patents, Inc., priority 1982, dated 1984):
Values belong to the compound of their own block, whether it stands above or below them. Positions of bridges follow the written chain, without caps; N, C: chain ends. Residues, ends and D or L forms follow the SMILES beside them.

Assays:
[1] = system: lizard (Anolis carolinensis) skin melanophores; assay: lizard skin bioassay, melanosome dispersion in vitro; type: cell-based
[2] = cited from earlier work
[3] = system: frog (Rana pipiens) skin melanophores; assay: duration of melanosome dispersion, frog skin bioassay; type: cell-based; settings: 5×10^-10 M, skins rinsed at 60 minutes
Method: The compounds of Example 1 were examined with respect to the duration of their ability to stimulate melanosome dispersion in vitro using the frog (Rana pipiens) skin bioassay.
At time zero, 5×10^-10 M of α-MSH was added to one group of frog skins and 5×10^-10 M of the test compounds were individually added to the second and third groups of skins. At time=60 minutes, skins were rinsed and transferred to Ringers solution.

[4] = system: adenylate cyclase in Cloudman S-91 mouse melanoma tumors; settings: [α-32P]ATP conversion to [32P]cAMP
From the text: ATP conversion to [^32 P]cAMP in Cloudman S-91 mouse melanoma tumors as described in Sawyer, et al., Proc. Nat. Acad. Sci. USA, 77, 5754-5758 (1980). [^32 P]cAMP was isolated, purified and detected according to Salomon, et al., Anal. Biochem., 24, pp. 18-26 (1976).

[5] = system: frog (Rana pipiens) skin melanophores; assay: frog skin bioassay, melanosome dispersion in vitro; type: cell-based; settings: standard frog skin assay
From the text: The Example 1 compounds were examined for their biological effects on melanosome dispersion in vitro using the standard frog (Rana pipiens) skin bioassay and photo-reflectance methods. See, Hadley, et al., Science, 213, pp. 1025-1027 (1981).

Compound: CC(=O)N[C@H]1CSSC[C@@H](C(=O)N[C@@H](CCCCN)C(=O)N2CCC[C@H]2C(=O)N[C@H](C(N)=O)C(C)C)NC(=O)[C@H](Cc2c[nH]c3ccccc23)NC(=O)[C@H](CCCNC(=N)N)NC(=O)[C@H](Cc2ccccc2)NC(=O)[C@H](Cc2cnc[nH]2)NC(=O)[C@H](CCC(=O)O)NC1=O [acetyl-[half-Cys^4, half-Cys^10]-α-MSH4-13NH.sbsb.2] (Ac-CEHFRWCKPV-NH2; disulfide 1-7)
- potency relative to the native hormone [1]: about 1.6 times

- time to complete degradation to a biologically inactive compound (chymotrypsin): ≤ 5 minutes
Compound: Ac-Ser^1 -Tyr^2 -Ser^3 -Met^4 -Glu^5 -His^6 -Phe^7 -Arg^8 -Trp^9 -Gly^10 -Lys^11 -Pro^12 -Val^13 -NH2 [α-MSH]
- half-life in serum [2]: less than 2 minutes
- time until activity completely reversed [3]: less than three

Compound: [Half-Cys^4, half-Cys^10 ]-α-MSH
- potency relative to the native hormone [1]: approximately thirty
- maximal adenylate cyclase activity compared with α-MSH [4]: same maximal adenylate cyclase activity as α-MSH
- potency relative to the native hormone [4]: approximately three

- enzymatic stability compared with α-MSH (in words) (chymotrypsin): enzymatically more stable than α-MSH
Compound: [half-Cys^5, half-Cys^11 ]-α-MSH
- potency compared with α-MSH (in words) [5]: less potent than α-MSH
